Values of other authors as cited in article PMC12332767 (RSC Chemical Biology, 2025).

Insoluble in chloroform (HI alone): 98.5%
Soluble in chloroform in interaction with PC (HI in interaction with PC): 74%
Substance: heparin [HI]
